The term ΔTm denotes the shift of the melting midpoint relative to a reference. One may read the IC50 as the midpoint of a concentration-inhibition curve. Low values mean inhibition by little substance, high ones a need for much substance.

Bounds are passed on as bounds.

Test [1] concerns the target T1, kinase domain of BMX (Homo sapiens, UniProt P51813).
T1 construct: The kinase domains of JAK3 and BMX at 2 μM
Put plainly: Thermal shift (ΔTm) assay. In kind it is binding. Particulars: 2 μM kinase domain, 10 μM inhibitor; mean ± SD of at least three measurements. The protocol:
(§1) The kinase domains of JAK3 and BMX at 2 μM were mixed with the inhibitors at 10 μM, and subsequently SyPRO orange dye (Invitrogen Carlsbad, CA, USA) was added. The thermal shift assay and data evaluation were performed as described previously using a Real-Time PCR Mx3005p machine (Stratagene, La Jolla, CA, USA).

The next test concerns the target T2, kinase domain of JAK3 (Homo sapiens, UniProt P52333).
T2 construct: The kinase domains of JAK3 and BMX at 2 μM; made in house
Put plainly: Thermal shift (ΔTm) assay. In kind it is binding. As to conditions: 2 μM kinase domain, 10 μM inhibitor; mean ± SD of at least three measurements. The protocol:
as §1

In a further test the target is T3, JAK3 (Homo sapiens, UniProt P52333).
T3 construct: purchased Reaction Biology Corporation
T3 sequence (P52333 1-1124): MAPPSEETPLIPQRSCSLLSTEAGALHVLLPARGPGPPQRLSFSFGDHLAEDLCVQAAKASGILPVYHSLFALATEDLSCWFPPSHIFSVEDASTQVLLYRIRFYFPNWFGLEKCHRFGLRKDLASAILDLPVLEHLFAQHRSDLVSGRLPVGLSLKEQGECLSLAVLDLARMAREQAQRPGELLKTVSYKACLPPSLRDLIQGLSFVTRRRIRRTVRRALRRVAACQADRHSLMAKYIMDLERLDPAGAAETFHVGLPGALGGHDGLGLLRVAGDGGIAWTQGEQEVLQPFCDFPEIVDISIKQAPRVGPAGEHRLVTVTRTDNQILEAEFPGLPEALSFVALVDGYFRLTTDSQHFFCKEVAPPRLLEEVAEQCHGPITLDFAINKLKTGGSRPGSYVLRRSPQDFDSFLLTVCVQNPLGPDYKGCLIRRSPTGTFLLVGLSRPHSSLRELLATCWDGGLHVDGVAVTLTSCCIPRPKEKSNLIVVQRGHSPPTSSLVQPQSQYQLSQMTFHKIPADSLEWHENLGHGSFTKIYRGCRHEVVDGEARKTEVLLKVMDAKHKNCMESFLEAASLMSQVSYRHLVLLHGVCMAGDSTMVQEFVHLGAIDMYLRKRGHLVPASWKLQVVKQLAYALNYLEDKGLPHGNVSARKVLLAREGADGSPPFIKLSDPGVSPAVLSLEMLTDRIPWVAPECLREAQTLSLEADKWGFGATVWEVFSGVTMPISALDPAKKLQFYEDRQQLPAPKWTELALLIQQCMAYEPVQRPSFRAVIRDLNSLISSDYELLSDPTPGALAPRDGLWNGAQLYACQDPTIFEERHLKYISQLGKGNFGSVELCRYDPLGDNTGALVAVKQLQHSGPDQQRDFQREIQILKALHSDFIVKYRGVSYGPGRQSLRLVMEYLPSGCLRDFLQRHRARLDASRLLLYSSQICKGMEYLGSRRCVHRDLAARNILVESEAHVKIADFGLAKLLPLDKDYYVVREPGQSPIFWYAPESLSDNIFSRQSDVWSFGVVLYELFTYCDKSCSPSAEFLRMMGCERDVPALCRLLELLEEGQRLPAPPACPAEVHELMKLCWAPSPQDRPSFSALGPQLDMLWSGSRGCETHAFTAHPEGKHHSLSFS
Put plainly: Radiometric kinase assay (Reaction Biology HotSpot). In kind it is biochemical. As to conditions: for JAK3 IC50 of nonreactive analogs (not shown): in words, data not shown. The protocol: (§2) If not mentioned differently, in vitro profiling of compounds was performed at Reaction Biology Corporation using the HotSpot™ assay platform.

Test [2] addresses T4, Full length BMX (C-terminal NanoLuc fusion) (Homo sapiens, UniProt P51813).
T4 construct: Full length BMX and BTK was cloned into pFC32K; expressed in transfected cells; host or cells: HEK293T
T4 sequence (P51813 1-675): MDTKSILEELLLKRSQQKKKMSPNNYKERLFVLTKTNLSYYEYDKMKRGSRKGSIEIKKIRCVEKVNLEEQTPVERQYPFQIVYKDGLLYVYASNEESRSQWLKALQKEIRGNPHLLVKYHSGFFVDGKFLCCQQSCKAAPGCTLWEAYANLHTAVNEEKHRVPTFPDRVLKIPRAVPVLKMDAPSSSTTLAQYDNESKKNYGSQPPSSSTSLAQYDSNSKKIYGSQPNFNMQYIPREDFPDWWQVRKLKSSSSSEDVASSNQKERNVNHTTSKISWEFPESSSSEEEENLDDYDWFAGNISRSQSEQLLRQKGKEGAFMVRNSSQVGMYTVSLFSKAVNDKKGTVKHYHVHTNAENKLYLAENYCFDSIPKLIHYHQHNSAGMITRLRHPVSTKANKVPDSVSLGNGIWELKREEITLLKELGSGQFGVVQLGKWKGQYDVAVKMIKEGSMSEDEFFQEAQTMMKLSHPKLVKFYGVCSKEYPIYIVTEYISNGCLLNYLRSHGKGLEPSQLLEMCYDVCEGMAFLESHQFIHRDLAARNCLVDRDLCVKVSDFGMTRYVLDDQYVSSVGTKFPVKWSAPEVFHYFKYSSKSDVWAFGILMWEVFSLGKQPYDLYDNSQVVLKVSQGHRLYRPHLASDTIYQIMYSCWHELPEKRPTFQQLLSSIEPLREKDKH
Put plainly: Cellular NanoBRET target engagement assay in HEK293T cells. Type of test: cell-based. As to conditions: 0.5 µM Tracer K4, 2 h incubation. The protocol: (§3) Full length BMX and BTK was cloned into pFC32K (Promega, Madison, WI, USA) for expression of a C-terminal NanoLuc fusion. The plasmids were transfected into HEK293T cells cultured in DMEM (Gibco, Waltham, MA, USA) supplemented with 10% fetal bovine serum (Gibco, Waltham, MA, USA) and Penicillin/Streptamycin (Gibco, Waltham, MA, USA). NanoBRET assays were performed using the protocol published previously. Briefly, after transfection and 20 h incubation cells were harvested and subsequently resuspended in OptiMEM (Gibco, Waltham, MA, USA). Cells were aliquoted onto […] (Greiner, Kremsmünster, Austria), and inhibitors as well as 0.5 µM Tracer K4 (Promega) for BMX or 0.5 µM Tracer K5 (Promega, Madison, WI, USA) for BTK were added using an ECHO acoustic dispenser. The plates were incubated at 37 °C with 5% CO2 for 2 h prior to the addition of both NanoBRET NanoGlo substrate (Promega, Madison, WI, USA) and extracellular NanoLuc inhibitor. BRET luminescence (450 nm for donor emission and 610 nm for BRET signal) was measured using PHERAstar FSX plate reader (BMG Labtech, Ortenberg, Germany). Milli-BRET units (mBU) were calculated as a ratio between BRET signal and the overall measured luminescence. A dose–response fitting was applied and IC50 values were calculated using the Prism software. […] Experiments were performed as tripicates and repeated at least three times.
In general terms: Bioluminescence resonance energy transfer reports proximity on the nanometre scale.

In test [3] the target is T5, Full length BTK (C-terminal NanoLuc fusion) (Homo sapiens, UniProt Q06187).
T5 construct: Full length BMX and BTK was cloned into pFC32K; expressed in transfected cells; host or cells: HEK293T
Described as above. In kind it is cell-based. As to conditions: 0.5 µM Tracer K5, 2 h incubation. The protocol:
as §3

Test [4] addresses T1, kinase domain of BMX. Put plainly: Mass spectrometric investigation of covalent binding to BMX (ESI-TOF). Particulars: 4 °C; for native (unmodified) BMX fraction, 30 min / native (unmodified) BMX fraction, 60 min / native (unmodified) BMX fraction, 120 min / native (unmodified) BMX fraction, 240 min: 1.5-fold molar excess of inhibitor; for covalent labeling of BMX (in words): 1.5-fold molar excess, complete labeling refers to 30 min. The protocol:
The kinase domain of BMX was diluted to 0.05 mM with buffer containing 20 mM Tris pH 8.0, 200 mM NaCl, 0.5 mM TCEP (pH 7.0) and was subsequently mixed with 0.075 mM inhibitors (ratio of protein to inhibitor of 1:1.5). The mixture was incubated at 4°C. The samples were taken at different time points, the reaction stopped by diluting the sample with a 200-fold excess of 1% formic acid. The denatured protein and the adducts were assessed using electrospray time-of-flight (ESI-TOF) mass spectrometry.

Another test addresses T6, BMX (Homo sapiens, UniProt P51813).
T6 construct: purchased Reaction Biology Corporation
T6 sequence (P51813 1-675): T4 sequence (P51813 1-675)
Put plainly: Radiometric kinase assay (Reaction Biology HotSpot). Type of test: biochemical. As to conditions: radiometric HotSpot, five-dose singlicate, [ATP] = 10 μM. As to the method: as §2

T5 sequence (Q06187 whole entry, the tested form may be a part): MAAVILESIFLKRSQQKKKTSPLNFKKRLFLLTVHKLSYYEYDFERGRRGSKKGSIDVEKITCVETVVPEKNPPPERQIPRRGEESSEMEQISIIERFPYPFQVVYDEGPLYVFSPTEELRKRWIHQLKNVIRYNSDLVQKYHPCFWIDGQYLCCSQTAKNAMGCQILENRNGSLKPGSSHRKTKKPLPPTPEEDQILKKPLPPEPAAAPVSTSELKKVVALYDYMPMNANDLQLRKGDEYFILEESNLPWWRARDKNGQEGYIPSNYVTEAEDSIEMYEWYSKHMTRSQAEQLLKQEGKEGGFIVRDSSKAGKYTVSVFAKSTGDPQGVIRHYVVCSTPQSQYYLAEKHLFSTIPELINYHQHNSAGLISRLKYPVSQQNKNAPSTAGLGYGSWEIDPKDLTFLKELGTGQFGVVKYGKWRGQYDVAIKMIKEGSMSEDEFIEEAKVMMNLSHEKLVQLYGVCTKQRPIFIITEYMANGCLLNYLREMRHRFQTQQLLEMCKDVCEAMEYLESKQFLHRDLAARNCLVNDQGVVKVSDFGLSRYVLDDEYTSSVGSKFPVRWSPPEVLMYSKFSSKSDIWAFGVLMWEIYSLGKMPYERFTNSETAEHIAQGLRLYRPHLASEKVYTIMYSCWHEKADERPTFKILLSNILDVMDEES

As for `C=CC(=O)Nc1cccc(-c2c[nH]c3ncc(C(=O)NC)cc23)c1` [Compound 11c, 3-(3-acrylamidophenyl)-N-methyl-1H-pyrrolo[2,3-b]pyridine-5-carboxamide], the ΔTm at 10 µM was 7.84 ± 0.04 °C at kinase domain of BMX [1] and 10.3 ± 0.37 °C at kinase domain of JAK3.

Consider `CCC(=O)Nc1cccc(-c2c[nH]c3ncccc23)c1` [Compound 9b, N-(3-(1H-pyrrolo[2,3-b]pyridin-3-yl)phenyl)propionamide], for which the “JAK3 IC50 of nonreactive analogs (not shown)” value at JAK3 is on record as “micromolar range”. In test [2], this molecule came in with an IC50 greater than 10 µM. This molecule also showed an IC50 in test [3] of 9.22 ± 3.7 µM. In addition, on kinase domain of BMX [4], the “native (unmodified) BMX fraction, 30 min” value came out at 100%; the “native (unmodified) BMX fraction, 60 min” value is on record as 100%; the “native (unmodified) BMX fraction, 120 min” value is reported as 100%; the “native (unmodified) BMX fraction, 240 min” value came to 100%. The “covalent labeling of BMX (in words)” value on kinase domain of BMX [4] is recorded as “no modification was detectable”.

As for `C=CC(=O)Nc1cccc(-c2c[nH]c3ncc(C(=O)NCC4CCCCC4)cc23)c1` [Compound 11f, 3-(3-acrylamidophenyl)-N-(cyclohexylmethyl)-1H-pyrrolo[2,3-b]pyridine-5-carboxamide], the figures for the ΔTm at 10 µM on kinase domain of BMX [1] and at kinase domain of JAK3 were 3.68 ± 0.13 °C and 5.54 ± 0.82 °C, respectively.

Regarding `C=CC(=O)Nc1cccc(-c2c[nH]c3ncc(NC(=O)c4ccco4)cc23)c1` [Compound 12d, N-(3-(3-acrylamidophenyl)-1H-pyrrolo[2,3-b]pyridin-5-yl)furan-2-carboxamide], the IC50 came to 0.004 µM against BMX and 1.08 µM against JAK3 (radiometric HotSpot, five-dose singlicate, [ATP] = 10 μM). The figures for the ΔTm at 10 µM at kinase domain of BMX [1] and at kinase domain of JAK3 were 10.75 ± 0.09 °C and 9.93 ± 0.12 °C, respectively.

Consider `C=CC(=O)Nc1cccc(-c2c[nH]c3ncc(C(=O)NCC)cc23)c1` [Compound 11d, 3-(3-acrylamidophenyl)-N-ethyl-1H-pyrrolo[2,3-b]pyridine-5-carboxamide], for which the ΔTm at 10 µM came out at 7.35 ± 0.19 °C on kinase domain of BMX [1] and 10.3 ± 0.26 °C at kinase domain of JAK3.

Turning to `C=CC(=O)Nc1cccc(-c2c[nH]c3ncc(NC(C)=O)cc23)c1` [Compound 12f, N-(3-(5-acetamido-1H-pyrrolo[2,3-b]pyridin-3-yl)phenyl)acrylamide], the ΔTm at 10 µM at kinase domain of BMX [1] turned out to be 10.6 ± 0.12 °C; at kinase domain of JAK3, 13.4 ± 0.43 °C.

For the molecule `C=CC(=O)Nc1cccc(-c2c[nH]c3ncc(C(=O)NCC4CC4)cc23)c1` [Compound 11e, 3-(3-acrylamidophenyl)-N-(cyclopropylmethyl)-1H-pyrrolo[2,3-b]pyridine-5-carboxamide], the thermal shift (ΔTm) at 10 µM at kinase domain of BMX [1] stood at 6.94 ± 0.07 °C; at kinase domain of JAK3, 9.64 ± 0.28 °C.

For the molecule `C=CC(=O)Nc1cccc(-c2c[nH]c3ncc(NC(=O)c4ccccc4)cc23)c1` [Compound 12e, N-(3-(3-acrylamidophenyl)-1H-pyrrolo[2,3-b]pyridin-5-yl)benzamide], the ΔTm at 10 µM at kinase domain of BMX [1] is 11.37 ± 0.03 °C; on kinase domain of JAK3, 10.9 ± 0.95 °C.

As to `CCC(=O)Nc1cccc(-c2c[nH]c3ncc(C(N)=O)cc23)c1` [Compound 10b, 3-(3-propionamidophenyl)-1H-pyrrolo[2,3-b]pyridine-5-carboxamide], the “JAK3 IC50 of nonreactive analogs (not shown)” value on JAK3 is “micromolar range”. In test [2], this molecule registered an IC50 greater than 10 µM. Further, in test [3], the half-maximal inhibitory concentration (IC50) is greater than 10 µM. Besides, at kinase domain of BMX [4], the “native (unmodified) BMX fraction, 30 min” value is 100%; the “native (unmodified) BMX fraction, 60 min” value worked out at 100%; the “native (unmodified) BMX fraction, 120 min” value is reported as 100%; the “native (unmodified) BMX fraction, 240 min” value stood at 100%. Besides, the “covalent labeling of BMX (in words)” value on kinase domain of BMX [4] is recorded as “no modification was detectable”.

For `c1ccc(-c2c[nH]c3ncccc23)cc1` [Compound 9c, 3-phenyl-1H-pyrrolo[2,3-b]pyridine], at JAK3, the “JAK3 IC50 of nonreactive analogs (not shown)” value is on record as “micromolar range”.

With `NC(=O)c1cnc2[nH]cc(-c3ccccc3)c2c1` [Compound 10c, 3-phenyl-1H-pyrrolo[2,3-b]pyridine-5-carboxamide], the “JAK3 IC50 of nonreactive analogs (not shown)” value at JAK3 is given as “micromolar range”.

In the case of `C=CC(=O)Nc1cccc(-c2c[nH]c3ncc(NC(=O)Cc4ccccc4)cc23)c1` [Compound 12h, N-(3-(5-(2-phenylacetamido)-1H-pyrrolo[2,3-b]pyridin-3-yl)phenyl)acrylamide], the ΔTm at 10 µM came to 11.9 °C on kinase domain of BMX [1] and 12.1 °C at kinase domain of JAK3.

In the case of `C=CC(=O)Nc1cccc(-c2c[nH]c3ncc(C(=O)NCc4ccccc4)cc23)c1` [Compound 11g, 3-(3-acrylamidophenyl)-N-benzyl-1H-pyrrolo[2,3-b]pyridine-5-carboxamide], the shift in melting temperature (ΔTm) at 10 µM stood at 6.84 ± 0.23 °C on kinase domain of BMX [1] and 8.29 ± 1.26 °C at kinase domain of JAK3.

These data come from article PMC7730235, “Discovery of a Novel Class of Covalent Dual Inhibitors Targeting the Protein Kinases BMX and BTK” (International Journal of Molecular Sciences, 2020).
